# What was measured:
# [1] = system: choline acetyltransferase (ChAT); test: choline acetyltransferase (ChAT) activity in rat septal neurons cultured on rat hippocampal astrocyte feeder layer; format: cell-based; settings: for ChAT activity: compound A 10-1000 nM
# Procedure: This experiment was done by a method reported by Pharmacology of Neurotrophic Factors, Ann. Rev. Pharmacol. Toxicol., Vol.37, pages 239-267, (1997).
# Astrocytes were obtained from the new-born Sprague-Dawley (SD) rat hippocampus by trypsin digestion and cultured in a serum-containing medium in a culture flask. The confluent astrocytes were harvested and seeded on 96 well plates at the density of 5×10^4 cells/well and served as the feeder layer for neurons after halting the overgrowth with 10 μM cytosine arabinoside. Neurons were taken from the septal area of E17 fetal SD rats by trypsin digestion and seeded on the astrocyte feeder layer at the density of 7.5×10^4 cells/well in a serum-free medium. On the next day, the compound was added to the culture with or without 3 ng/ml recombinant human NGF (rhNGF) and cultured further for 7 days. Then cells were lysed with 5 mM Tris-HCl (pH 7.4)/0.1% Triton X-100 and choline acetyltransferase (ChAT) activity was measured radiometrically by the method of Fonnum.
# [2] = system: CA1 neurons; test: 10-min forebrain ischemia (4-vessel occlusion) in rats, number of living CA1 pyramidal cells; format: in vivo, rat; settings: male Wistar rats, 10-min 4 VO; 10 mg/kg orally 1 hr before and 4 hr after ischemia, then once daily for 6 days; counted 7 days after occlusion; P<0.05
# Procedure: Male Wistar rats (Japan Clea Inc., Tokyo, Japan) aged 9 weeks were used. Rats were subjected to 10-min forebrain ischemia using a method reported by Pulsinelli W. A. and Brierley J. B., Stroke, Vol.10, pages 267-272, (1979). Compound A (10 mg/kg) was orally administered 1 hr before and 4 hr after the ischemic operation, and from the next day, it was administered once daily for 6 days.
# Rats were sacrificed 7 days after occlusion for histopathological observation. Under deep pentobarbital anesthesia, rats were perfused transcardially with physiological saline solution. The brains were removed, soaked in FAM (formaline:acetic acid:methanol=1:1:8) solution, and embedded in paraffin. Serial coronal sections (6 μm) were cut at the level of the anterior hippocampus, approximately 3.8-4.3 mm posterior to the bregma and stained with hematoxilin and eosin. The number of living pyramidal cells per 250 μm length of CA1 sector were counted under a light microscope. The average of the right and left neuronal densities were defined as the neuronal density for each rat.
# Group differences in the number of CA1 pyramidal cells were analyzed using Student t-tests.
# [3] = in the presence of 3 ng/ml rhNGF, cultured 7 days (FIG. 2)
# [4] = without rhNGF, cultured 7 days, rat septal neurons on astrocyte feeder layer (FIG. 1)
Compound,"low concentration from which neurotrophic action is shown ([1]; ChAT activity in rat septal neurons, with or without rhNGF)","ChAT activity [1, 3]","ChAT activity [1, 4]",number of CA1 pyramidal cells (survival of CA1 neurons) versus vehicle-treated 4 VO control [2]
"O=C(CCC1CCN(Cc2ccccc2)CC1)c1ccc2c(c1)NCCCC2.O=C(O)/C=C/C(=O)O [compound A, 3-[1-(phenylmethyl)-4-piperidinyl]-1-(2,3,4,5-tetrahydro-1H-1-benzazepin-8-yl)-1-propanone fumarate]",10 nm,markedly elevated ChAT activity,apparently increased ChAT activity,significantly greater than that of the vehicle-control
"Nc1c2c(nc3ccccc13)CCCC2 [tacrine, reference compound]",–,did not affect ChAT activity,did not affect ChAT activity,–
